{"source": "patent US11197856B2", "about": "“Bicyclic compounds and methods for their use in treating autism” (priority 2013, dated 2021)", "key": {"MeCP2 knockout mice": {"tested_on": "MeCP2 knockout mice", "assay": "Nocturnal activity measurements", "format": "in vivo", "conditions": "MeCP2 knockout mice after 6 weeks; nocturnal infrared beam crossing", "procedure": "Spontaneous motor activity is measured by using an infrared beam-activated movement-monitoring chamber (Opto-Varimax-MiniA; Columbus Instruments, Columbus, Ohio). For each experiment, a mouse is placed in the chamber at least 3 h before recordings started. Movement is monitored during the normal 12-h dark cycle (7 p.m. to 7 a.m.). One dark cycle per animal per time point is collected.\nMeCP2−/y mice develop Rett-like symptoms beginning at 4-6 weeks of age when they progressively become lethargic, develop gait ataxia and […] (Chen et al., 2001). Baseline locomotor activity is also recorded in mice after 6 weeks by counting nocturnal infrared beam crossing events within a caged area."}, "[1]": {"tested_on": "fmr1-knockout hippocampal neurons", "assay": "Dendritic spine density in hippocampal cell cultures", "format": "cell-based, mice", "procedure": "Hippocampal cell cultures were prepared from wild type and fmr1-knockout fetal mice (14-16 days of gestation). Briefly, mice were kill by cervical dislocation under chloroform anesthesia, and dissociated hippocampal cells were plated in 13 mm multiwell vessels (Falcon Primaria). A plating medium of MEM-Eagle's salts (supplied glutamine free) supplemented with 10% fetal bovine serum was used. Cultures were kept at 37° C. in a humidified 3% CO2 atmosphere. After 3d in vitro, green fluorescent protein (GFP) was added to monitor dendritic spine morphogenesis during time-course of culture (Ethell and Yamaguchi, 1999; Ethell et al., 2001, Henkemeyer et al., 2003). The dendritic spines usually formed between 7 and 14 days in vitro (DVI). By 14 DIV most dendritic protrusions were spines. The mean (±SD) spine density was measured as number of spines per micrometer and experiments were run in triplicate."}, "[2]": {"tested_on": "fmr1-knockout mice and wild-type littermates", "assay": "Successive Alleys Test", "format": "in vivo", "procedure": "The fmr1-knockout (KO2) mice (C57BL/6 background) were housed in groups of the same genotype in a temperature and humidity controlled room with a 12-h light-dark cycle (lights on 7 am to […]). Testing was conducted during the light phase. Food and water were available ad libitum. Testing was conducted on fmr1-knockout mice and their wild-type littermates. Experiments were conducted according to requirements of the UK Animals (Scientific Procedures) Act, 1986. The animals were divided into four groups:\nIn one study, we used a “Successive Alleys Test” device. This device consists of four successive, linearly connected increasingly anxiogenic alleys. Each succeeding alley was painted a lighter color, had lower walls and/or was narrower than the previous alley. Animals were placed at the closed end of alley 1 (A1), facing the end wall. The latency to first enter each alley (A2, A3, and/or A4), the amount of time spent in each alley, and the number of entries into each alley were recorded during a total test time of 300 seconds.\nFor a Successive Alleys Test, we measured the number of entries in Alley 1 (A1), Alley 2 (A2), Alley 3 (A3), and Alley 4 (A4) for each of the 4 groups of animals described above."}, "NMDA NR1 subunit": {"tested_on": "NMDA NR1 subunit", "assay": "NMDA receptor-1 immunohistochemical staining of hippocampus", "format": "in vivo, male Wistar rats", "conditions": "CA1 and CA3; post-treatment", "procedure": "Aged rats (male Wistar rats, 18-20 months old) were divided into four groups: two vehicle-treated (groups 1 and 3) and two G-2-AllylP treated (groups 2 and 4) (all groups n=6-8). Cyclic G-2-AllylP was synthesised by the Department of Medicinal Chemistry and dissolved in normal saline before the treatment. On day 1 a single dose of cyclic G-2-AllylP was given centrally (20 ng/animal, i.c.v.) to the animals in groups 2 and 4; saline was administered to groups 1 and 3. The memory tests using Novel Object Recognition Test started either on day 3 (groups 1 and 2) or 24 (groups 3 and 4) after the treatment. On the completion of the NORT, the rats were killed with an overdose of sodium pentobarbital and were perfused transcardially with normal saline followed by 10% formalin. Tissues collected at day 7 in groups 1 and 2, and at day 28 from groups 3 and 4. The brains were kept in the same fixative for a minimum of 2 days before being processed using a standard paraffin embedding procedure. Briefly, small blocks (10×10×3 mm) of tissue were fixed for up to 24 hrs. The blocks were then infiltrated and embedded with paraffin and cut in ribbons and mounted on slides. Slides were then stored until immunostaining was commenced. Synaptogenesis in brain tissue was examined using immunohistochemical staining. […]"}, "synaptophysin": {"tested_on": "synaptophysin", "assay": "Synaptophysin immunohistochemical staining of hippocampus", "format": "in vivo, male Wistar rats", "conditions": "for density of synaptophysin staining: 28 days post-treatment", "procedure": "Aged rats (male Wistar rats, 18-20 months old) were divided into four groups: two vehicle-treated (groups 1 and 3) and two G-2-AllylP treated (groups 2 and 4) (all groups n=6-8). Cyclic G-2-AllylP was synthesised by the Department of Medicinal Chemistry and dissolved in normal saline before the treatment. On day 1 a single dose of cyclic G-2-AllylP was given centrally (20 ng/animal, i.c.v.) to the animals in groups 2 and 4; saline was administered to groups 1 and 3. The memory tests using Novel Object Recognition Test started either on day 3 (groups 1 and 2) or 24 (groups 3 and 4) after the treatment. On the completion of the NORT, the rats were killed with an overdose of sodium pentobarbital and were perfused transcardially with normal saline followed by 10% formalin. Tissues collected at day 7 in groups 1 and 2, and at day 28 from groups 3 and 4. The brains were kept in the same fixative for a minimum of 2 days before being processed using a standard paraffin embedding procedure. Briefly, small blocks (10×10×3 mm) of tissue were fixed for up to 24 hrs. The blocks were then infiltrated and embedded with paraffin and cut in ribbons and mounted on slides. Slides were then stored until immunostaining was commenced. Synaptogenesis in brain tissue was examined using immunohistochemical staining.\nSynaptophysin is a presynaptic vesicle protein. Its quantitative detection is established as a molecular marker of synaptic density.\nConventional deparaffinisation and rehydration techniques were used to allow the water-based buffers and antibodies to penetrate the tissue slices. Antigen retrieval was used only prior to AMPA receptor (GluR1) staining, i.e. the slides were placed in boiling citrate buffer and allowed to cool.\nThe following antibodies were used: • i) primary rabbit antibody to NMDA NR1 subunit, at 1:200 concentration in buffer, incubated for 48 hrs (Chemicon—AB1516), followed by Sigma fluorescent secondary antibody (alexaFluor 394), at 1:200 dilution, incubated for 24 hours at 40C. • ii) primary antibody to AMPA GluR1 subunit, at 1:30 concentration in buffer, incubated for 48 hrs (Chemicon—AB1504) followed by 3,3′-diaminobenzidine (DAB) at 1:200 dilution, incubated for 24 hours at 40C. • iii) Primary antibody to mSynaptophysin (Sigma—S5768), at 1:200 concentration in buffer, followed by DAB at 1:200 dilution, incubated for 24 hours at 40C. • iv) Primary antibody to rKrox-24 (Santa Cruz—catalogue number SC-189) at 1:200 concentration in the buffer, followed by anti-rabbit secondary antibody at concentration of 1:200 dilution, incubated for 24 hours at 40C. • y) Antibodies were detected using light microscopy.\nWe subsequently analysed effect of cG-2AllylP on the levels of synaptophysin staining in CA3 and CA1 regions of the hippocampus."}}}
{"compound": "C=CC[C@]12CCCN1C(=O)CNC2=O", "note": "[cG-2-AllylP, (8aS)-Allyl-hexahydropyrrolo[1,2-a]pyrazine-1,4-dione]", "values": [{"measurement": "locomotor activity levels", "setting": "MeCP2 knockout mice", "value": "elevates these levels"}, {"measurement": "spine density (mean±SD)", "setting": "[1]; 0.5 nM, n=3", "value": "0.36±0.02 number of spines per micromete"}, {"measurement": "spine density (mean±SD)", "setting": "[1]; 5 nM", "value": "0.25±0.03 number of spines per micromete"}, {"measurement": "spine density (mean±SD)", "setting": "[1]; 50 nM", "value": "0.27±0.10 number of spines per micromete"}, {"measurement": "number of entries into arm A1", "setting": "[2]; fmr1-knockout animals", "value": "about 4 times"}, {"measurement": "number of entries into arm A2", "setting": "[2]; fmr1-knockout animals", "value": "about 4 times"}, {"measurement": "number of entries into arm A3", "setting": "[2]; fmr1-knockout animals", "value": "about 4 times"}, {"measurement": "number of entries into arm A4", "setting": "[2]; fmr1-knockout animals", "value": "about 3 times"}, {"measurement": "open arm entries", "setting": "[2]; fmr1-knockout animals vs vehicle, p<0.001", "value": "significant reduction in open arm entries"}, {"measurement": "time spent in the center", "setting": "[2]; fmr1-knockout animals vs vehicle, p<0.005", "value": "significant reduction"}, {"measurement": "number of entries into arm A1", "setting": "[2]; wild-type animals", "value": "about 2 times"}, {"measurement": "number of entries into arm A2", "setting": "[2]; wild-type animals", "value": "about 4 times"}, {"measurement": "changes in the NMDA receptors", "setting": "NMDA NR1 subunit", "value": "not so pronounced"}, {"measurement": "density of synaptophysin staining", "setting": "synaptophysin; CA1 strata oriens and radiatum", "value": "clear trend towards"}, {"measurement": "density of synaptophysin staining", "setting": "synaptophysin; CA3", "value": "significant increase"}, {"measurement": "density of pre-synaptic stain (FIG. 6)", "setting": "synaptophysin; CA3 region, day 24 post-treatment", "value": "trend to increase the density of pre-synaptic stain"}, {"measurement": "density of pre-synaptic stain (FIG. 7)", "setting": "synaptophysin; stratum oriens of CA1, day 24 post-treatment", "value": "trend to increase the density of the pre-synaptic stain"}, {"measurement": "density of pre-synaptic stain (FIG. 8)", "setting": "synaptophysin; stratum radiatum of CA1, day 24 post-treatment", "value": "increase the density of the pre-synaptic stain"}]}
